According to US20200291018A1, “TAM KINASE INHIBITORS” (SYROS PHARMACEUTICALS, INC., priority 2017, published 2020):

What was measured:
AXL = target: T1, AXL (Homo sapiens, UniProt P30530); assay: TR-FRET kinase activity assay, AXL; type: biochemical; details: ATP at Km, 60 minutes
T1 sequence (P30530 26-894): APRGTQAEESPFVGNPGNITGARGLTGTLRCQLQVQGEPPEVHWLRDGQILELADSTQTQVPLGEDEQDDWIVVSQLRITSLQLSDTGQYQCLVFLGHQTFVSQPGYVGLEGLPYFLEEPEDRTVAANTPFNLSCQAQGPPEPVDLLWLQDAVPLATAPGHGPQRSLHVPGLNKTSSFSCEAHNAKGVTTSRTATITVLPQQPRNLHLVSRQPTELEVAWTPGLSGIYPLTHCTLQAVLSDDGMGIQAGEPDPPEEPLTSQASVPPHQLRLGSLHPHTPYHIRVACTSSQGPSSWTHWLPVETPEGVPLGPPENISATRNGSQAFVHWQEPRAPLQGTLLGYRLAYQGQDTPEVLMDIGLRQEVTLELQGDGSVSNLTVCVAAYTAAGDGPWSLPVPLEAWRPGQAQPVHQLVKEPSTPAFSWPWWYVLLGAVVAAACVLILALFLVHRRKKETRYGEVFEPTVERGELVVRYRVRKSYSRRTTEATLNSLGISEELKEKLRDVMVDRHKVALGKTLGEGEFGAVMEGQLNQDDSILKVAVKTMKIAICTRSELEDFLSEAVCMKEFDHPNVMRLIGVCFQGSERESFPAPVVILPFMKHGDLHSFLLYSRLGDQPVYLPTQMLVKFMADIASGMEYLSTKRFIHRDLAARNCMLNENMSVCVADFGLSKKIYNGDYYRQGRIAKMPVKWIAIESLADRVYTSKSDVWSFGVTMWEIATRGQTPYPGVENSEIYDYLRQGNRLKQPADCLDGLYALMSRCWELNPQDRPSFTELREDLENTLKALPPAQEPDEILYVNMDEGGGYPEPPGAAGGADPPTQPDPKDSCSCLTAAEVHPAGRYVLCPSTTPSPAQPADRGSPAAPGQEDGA
Method: (§1) IC50 values for compound inhibition of AXL, FLT3, MERTK and TYRO3 activity were determined using a TR-FRET activity assay. A peptide substrate with a fluorescent label is phosphorylated on a tyrosine by each enzyme, where the now phosphorylated product is bound by a Europium-labeled antibody specific to that phosphorylation site. The proximity between the antibody and the substrate gives a signal known as TR-FRET. As the enzyme is inhibited by compound, less phosphorylated peptide product is made, causing a decrease in overall signal.
(§2) Activity assays were performed in a 384-well, small volume, black microplates in an active enzyme volume of 10 uL and final developed volume of 20 uL. Final assay conditions are 50 mM HEPES pH 7.5, 10 mM MgCl2, 1 mM EGTA, 0.01% Brij 35 and 1 mM DTT, all at RT. Enzyme, substrate-labeled peptide and compound are mixed, and then the reaction is initiated with the addition of ATP at Km concentration for each enzyme. The reaction is allowed to run 60 minutes and then quenched with a 12.5 mM EDTA (ethylenediamine tetraacetic acid) solution. The plate is then developed with the addition of Europium-labeled antibody for a final volume of 20 uL and is then incubated for 30 minutes in darkness. Plates are read in a PHERASTAR® plate reader. Data are analyzed in GraphPad PRISM.

MERTK = target: T2, MERTK (Homo sapiens, UniProt Q12866); assay: TR-FRET kinase activity assay, MERTK; type: biochemical; details: for IC50: TR-FRET activity assay, ATP at Km, 60 minutes, read-out: Mer IC50; for Mer/Flt3 ratio (FLT3 IC50/Mer IC50): ratio calculated as FLT3 IC50/Mer IC50
T2 sequence (Q12866 21-999): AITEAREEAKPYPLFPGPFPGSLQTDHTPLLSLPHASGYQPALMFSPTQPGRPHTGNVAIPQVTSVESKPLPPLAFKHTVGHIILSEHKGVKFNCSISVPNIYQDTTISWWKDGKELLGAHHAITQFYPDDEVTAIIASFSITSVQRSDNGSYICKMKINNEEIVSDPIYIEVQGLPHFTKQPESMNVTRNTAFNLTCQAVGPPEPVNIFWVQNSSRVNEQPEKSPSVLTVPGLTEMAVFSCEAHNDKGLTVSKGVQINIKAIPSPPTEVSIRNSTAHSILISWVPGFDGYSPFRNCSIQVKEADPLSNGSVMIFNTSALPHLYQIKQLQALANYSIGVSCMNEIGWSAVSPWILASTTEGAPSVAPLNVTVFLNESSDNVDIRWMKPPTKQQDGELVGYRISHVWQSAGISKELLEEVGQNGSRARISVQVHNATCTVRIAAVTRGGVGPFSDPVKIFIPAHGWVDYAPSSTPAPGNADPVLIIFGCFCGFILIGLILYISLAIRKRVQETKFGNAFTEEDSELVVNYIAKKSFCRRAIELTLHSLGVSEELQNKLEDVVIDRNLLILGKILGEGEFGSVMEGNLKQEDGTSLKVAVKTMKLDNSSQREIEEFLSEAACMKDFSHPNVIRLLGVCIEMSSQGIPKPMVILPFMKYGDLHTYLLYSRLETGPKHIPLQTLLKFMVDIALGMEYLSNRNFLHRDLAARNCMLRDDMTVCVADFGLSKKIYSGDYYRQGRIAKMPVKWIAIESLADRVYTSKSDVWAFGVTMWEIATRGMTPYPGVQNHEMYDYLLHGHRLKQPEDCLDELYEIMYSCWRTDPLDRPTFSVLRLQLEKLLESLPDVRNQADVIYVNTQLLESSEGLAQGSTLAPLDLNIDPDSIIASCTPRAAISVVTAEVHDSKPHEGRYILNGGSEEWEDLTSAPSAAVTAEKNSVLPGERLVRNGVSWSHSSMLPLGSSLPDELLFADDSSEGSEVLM
Method: as §1, §2

Row | Structure (SMILES) | IC50 (AXL) | IC50 (MERTK) | Mer/Flt3 ratio (FLT3 IC50/Mer IC50) (MERTK)
1 | CC[C@H](C)Nc1ncc2c(OC3CCN(C)CC3)ncc([C@H]3CC[C@H](O)CC3)c2n1 [Compound 221] | 100 to 1000 nM | ≤ 100 nM | +++ (a ratio of >100)
2 | CC[C@H](C)Nc1ncc2c(N3CC[C@@H](N(C)C)C3)ncc([C@H]3CC[C@H](O)CC3)c2n1 [Compound 222] | 100 to 1000 nM | ≤ 100 nM | ++ (a ratio of between 10 and 100)
3 | CC[C@H](C)Nc1ncc2c(OC3C[C@H]4CC[C@@H](C3)O4)ncc([C@H]3CC[C@H](O)CC3)c2n1 (stereo partly drawn) [Compound 223] | 100 to 1000 nM | ≤ 100 nM | ++ (a ratio of between 10 and 100)
4 | O[C@H]1CC[C@H](c2cnc(OC3CCNCC3)c3cnc(NCCC(F)(F)F)nc32)CC1 [Compound 224] | ≤ 100 nM | ≤ 100 nM | ++ (a ratio of between 10 and 100)
5 | CC[C@H](C)Nc1ncc2c(=O)n(C3CCOCC3)cc([C@H]3CC[C@H](O)CC3)c2n1 [Compound 225] | 100 to 1000 nM | ≤ 100 nM | ++ (a ratio of between 10 and 100)
6 | CC[C@H](C)Nc1ncc2c(OC3CCOCC3)ncc([C@H]3CC[C@H](O)CC3)c2n1 [Compound 226] | 100 to 1000 nM | ≤ 100 nM | +++ (a ratio of >100)
7 | CC[C@H](C)Nc1ncc2c(OC3CC(C)(C)N(C)C(C)(C)C3)ncc([C@H]3CC[C@H](O)CC3)c2n1 [Compound 227] | ≤ 100 nM | ≤ 100 nM | +++ (a ratio of >100)
8 | CCC(CC)Nc1ncc2c(OC3CCNCC3)ncc([C@H]3CC[C@H](O)CC3)c2n1 [Compound 228] | 100 to 1000 nM | ≤ 100 nM | ++ (a ratio of between 10 and 100)
9 | CC[C@H](C)Nc1ncc2c(O[C@H]3CC[C@H](O)CC3)ncc([C@H]3CC[C@H](O)CC3)c2n1 [Compound 229] | 100 to 1000 nM | ≤ 100 nM | ++ (a ratio of between 10 and 100)
10 | CC[C@H](C)Nc1ncc2c(Cl)ncc([C@H]3CC[C@H](O)CC3)c2n1 [Compound 230] | 100 to 1000 nM | ≤ 100 nM | +++ (a ratio of >100)
11 | CC[C@H](C)NC1=NC2C([C@H]3CC[C@H](O)CC3)=CN(C(C)C)C(=O)C2C=N1 (stereo partly drawn) [Compound 231] | 100 to 1000 nM | ≤ 100 nM | +++ (a ratio of >100)
12 | O[C@H]1CC[C@H](c2cnc(OC3CCNCC3)c3cnc(N[C@@H]4CCCOC4)nc32)CC1 [Compound 232] | 100 to 1000 nM | 100 to 1000 nM | + (a ratio of >2.0 and <10)
13 | CC[C@H](C)Nc1ncc2c(OC3CCN(S(C)(=O)=O)CC3)ncc([C@H]3CC[C@H](O)CC3)c2n1 [Compound 233] | ≤ 100 nM | ≤ 100 nM | +++ (a ratio of >100)
14 | CC[C@H](C)Nc1ncc2c(=O)n(C3CCN(S(C)(=O)=O)CC3)cc([C@H]3CC[C@H](O)CC3)c2n1 [Compound 234] | 100 to 1000 nM | ≤ 100 nM | +++ (a ratio of >100)
15 | CCOc1ncc([C@H]2CC[C@H](O)CC2)c2nc(N[C@@H](C)CC)ncc12 [Compound 235] | ≤ 100 nM | ≤ 100 nM | +++ (a ratio of >100)
16 | CCOc1ncc(CC2CCNCC2)c2nc(N[C@@H](C)CC)ncc12 [Compound 236] | 100 to 1000 nM | ≤ 100 nM | + (a ratio of >2.0 and <10)
17 | CC[C@H](C)Nc1ncc2c(OC3C[C@H]4CC[C@@H](C3)O4)ncc([C@H]3CC[C@H](O)CC3)c2n1 (stereo partly drawn) [Compound 237] | 1000 to 10000 nM | ≤ 100 nM | +++ (a ratio of >100)
18 | CC[C@H](C)Nc1ncc2c(NC34CCC(O)(CC3)CC4)ncc([C@H]3CC[C@H](O)CC3)c2n1 [Compound 238] | 100 to 1000 nM | ≤ 100 nM | ++ (a ratio of between 10 and 100)
